According to ChEMBL document CHEMBL5209574, “Fluo-8 based assay for SLC24A4 using HEK293 JumpIn SLC24A4 OE cells” (2022):

Target: T1, Sodium/potassium/calcium exchanger 4 (Homo sapiens, UniProt Q8NFF2)
T1 sequence (Q8NFF2 whole entry): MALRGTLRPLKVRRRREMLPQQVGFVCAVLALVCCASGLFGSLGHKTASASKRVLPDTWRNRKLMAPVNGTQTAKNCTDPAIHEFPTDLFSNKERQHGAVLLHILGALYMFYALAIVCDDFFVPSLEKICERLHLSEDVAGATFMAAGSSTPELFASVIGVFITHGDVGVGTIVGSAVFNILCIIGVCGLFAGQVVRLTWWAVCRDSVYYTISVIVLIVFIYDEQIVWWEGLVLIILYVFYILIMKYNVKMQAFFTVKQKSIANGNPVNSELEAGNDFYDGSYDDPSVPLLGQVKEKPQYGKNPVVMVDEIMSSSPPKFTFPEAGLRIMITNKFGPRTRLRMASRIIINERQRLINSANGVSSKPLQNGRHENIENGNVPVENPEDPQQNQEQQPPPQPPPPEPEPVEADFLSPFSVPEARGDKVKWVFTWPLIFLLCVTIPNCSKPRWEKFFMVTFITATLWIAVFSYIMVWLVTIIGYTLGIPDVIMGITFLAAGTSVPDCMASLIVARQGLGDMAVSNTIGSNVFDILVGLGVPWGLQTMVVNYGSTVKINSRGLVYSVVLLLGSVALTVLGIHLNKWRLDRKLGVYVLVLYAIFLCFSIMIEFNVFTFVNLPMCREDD
Assay: Substrate uptake by the Sodium/Potassium/Calcium Exchanger 4 (NCKX4, SLC24A4) as assessed by Screen Questtrade mark Fluo-8 NW calcium assay kit in HEK-293 JumpIN-SLC24A4 cells (PubChem AID: 1794814)
Type: functional, cell-based, HEK293

**Q.** Which EC50 does the source give for [Cl-].[K+] [POTASSIUM CHLORIDE] here?
**A.** 174 mM
